Source: patent publication US9340590B2 (priority 2011, dated 2016)
Positions of bridges follow the written chain, without caps; N, C: chain ends. Non-standard residues stand in square brackets, D forms with d. Residues, ends and D or L forms follow the SMILES beside them. Nva = CCC[C@H](N)C(=O)O; Abu = CC[C@H](N)C(=O)O

Legend:
Assay in all cases: cell-based
hNav1.7 = hNav1.7 (Homo sapiens, UniProt Q15858); type: cell-based; settings: IonWorks Quattro, use-dependent protocol, hNav1.7; read-out: IWQ Use Nav1.7
hNav1.3 = hNav1.3 (Homo sapiens, UniProt Q9NY46); settings: IonWorks Quattro, use-dependent protocol, hNav1.3; read-out: IWQ Use Nav1.3
hNav1.5 = hNav1.5 (Homo sapiens, UniProt Q14524); settings: IonWorks Quattro, use-dependent protocol, hNav1.5; read-out: IWQ Use Nav1.5

Sequence of hNav1.3 (Q9NY46 whole entry, looked up): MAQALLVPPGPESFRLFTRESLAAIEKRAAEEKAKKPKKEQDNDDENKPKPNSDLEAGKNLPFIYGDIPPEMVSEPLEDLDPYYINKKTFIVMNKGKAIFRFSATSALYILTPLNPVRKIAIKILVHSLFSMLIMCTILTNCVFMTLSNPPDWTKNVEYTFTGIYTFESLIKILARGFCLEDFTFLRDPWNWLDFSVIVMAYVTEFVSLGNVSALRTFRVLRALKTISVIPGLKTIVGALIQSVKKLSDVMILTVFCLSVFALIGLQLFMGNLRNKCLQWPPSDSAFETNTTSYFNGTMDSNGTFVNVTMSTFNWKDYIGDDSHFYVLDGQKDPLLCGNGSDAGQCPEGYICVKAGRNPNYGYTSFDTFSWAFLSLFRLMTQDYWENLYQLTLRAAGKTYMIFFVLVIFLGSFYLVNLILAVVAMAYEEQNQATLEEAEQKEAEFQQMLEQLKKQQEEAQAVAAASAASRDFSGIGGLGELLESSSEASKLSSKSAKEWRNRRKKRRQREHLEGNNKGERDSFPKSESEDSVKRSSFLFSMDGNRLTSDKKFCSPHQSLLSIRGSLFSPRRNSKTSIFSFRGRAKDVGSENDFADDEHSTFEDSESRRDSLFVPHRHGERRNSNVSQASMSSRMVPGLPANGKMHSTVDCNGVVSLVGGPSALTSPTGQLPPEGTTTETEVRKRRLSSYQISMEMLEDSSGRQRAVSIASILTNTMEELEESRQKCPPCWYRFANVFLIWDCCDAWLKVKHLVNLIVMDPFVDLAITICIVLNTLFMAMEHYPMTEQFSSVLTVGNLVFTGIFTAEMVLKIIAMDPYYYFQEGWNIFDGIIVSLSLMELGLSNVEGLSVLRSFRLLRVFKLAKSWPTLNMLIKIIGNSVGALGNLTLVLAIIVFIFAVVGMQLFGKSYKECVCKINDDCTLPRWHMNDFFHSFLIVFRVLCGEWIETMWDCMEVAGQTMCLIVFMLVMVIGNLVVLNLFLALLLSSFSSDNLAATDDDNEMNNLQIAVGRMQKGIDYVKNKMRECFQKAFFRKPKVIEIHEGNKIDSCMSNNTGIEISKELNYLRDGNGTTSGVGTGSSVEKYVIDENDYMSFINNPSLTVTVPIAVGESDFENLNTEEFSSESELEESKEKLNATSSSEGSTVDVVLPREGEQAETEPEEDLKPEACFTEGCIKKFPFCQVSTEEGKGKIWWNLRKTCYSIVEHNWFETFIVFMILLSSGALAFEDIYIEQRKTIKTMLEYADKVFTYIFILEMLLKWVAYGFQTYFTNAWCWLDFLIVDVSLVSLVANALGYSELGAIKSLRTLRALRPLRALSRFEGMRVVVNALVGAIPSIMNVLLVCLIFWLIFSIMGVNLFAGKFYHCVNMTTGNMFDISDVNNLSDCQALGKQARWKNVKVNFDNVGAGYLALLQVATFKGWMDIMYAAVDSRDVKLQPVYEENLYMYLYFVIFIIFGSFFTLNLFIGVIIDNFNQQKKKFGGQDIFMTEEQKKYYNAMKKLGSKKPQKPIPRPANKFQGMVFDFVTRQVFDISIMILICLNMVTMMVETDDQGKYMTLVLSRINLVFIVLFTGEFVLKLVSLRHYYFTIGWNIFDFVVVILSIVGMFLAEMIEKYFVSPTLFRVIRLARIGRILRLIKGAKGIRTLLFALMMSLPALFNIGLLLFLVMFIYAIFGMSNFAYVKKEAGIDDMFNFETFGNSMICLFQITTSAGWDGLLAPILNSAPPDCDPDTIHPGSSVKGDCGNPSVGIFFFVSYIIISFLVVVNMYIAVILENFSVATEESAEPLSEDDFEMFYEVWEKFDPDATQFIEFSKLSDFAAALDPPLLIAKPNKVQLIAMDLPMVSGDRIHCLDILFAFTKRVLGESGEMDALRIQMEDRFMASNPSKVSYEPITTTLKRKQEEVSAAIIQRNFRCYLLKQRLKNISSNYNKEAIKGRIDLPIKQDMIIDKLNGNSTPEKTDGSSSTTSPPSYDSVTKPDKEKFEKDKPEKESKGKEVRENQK
Sequence of hNav1.7 (Q15858 whole entry, looked up): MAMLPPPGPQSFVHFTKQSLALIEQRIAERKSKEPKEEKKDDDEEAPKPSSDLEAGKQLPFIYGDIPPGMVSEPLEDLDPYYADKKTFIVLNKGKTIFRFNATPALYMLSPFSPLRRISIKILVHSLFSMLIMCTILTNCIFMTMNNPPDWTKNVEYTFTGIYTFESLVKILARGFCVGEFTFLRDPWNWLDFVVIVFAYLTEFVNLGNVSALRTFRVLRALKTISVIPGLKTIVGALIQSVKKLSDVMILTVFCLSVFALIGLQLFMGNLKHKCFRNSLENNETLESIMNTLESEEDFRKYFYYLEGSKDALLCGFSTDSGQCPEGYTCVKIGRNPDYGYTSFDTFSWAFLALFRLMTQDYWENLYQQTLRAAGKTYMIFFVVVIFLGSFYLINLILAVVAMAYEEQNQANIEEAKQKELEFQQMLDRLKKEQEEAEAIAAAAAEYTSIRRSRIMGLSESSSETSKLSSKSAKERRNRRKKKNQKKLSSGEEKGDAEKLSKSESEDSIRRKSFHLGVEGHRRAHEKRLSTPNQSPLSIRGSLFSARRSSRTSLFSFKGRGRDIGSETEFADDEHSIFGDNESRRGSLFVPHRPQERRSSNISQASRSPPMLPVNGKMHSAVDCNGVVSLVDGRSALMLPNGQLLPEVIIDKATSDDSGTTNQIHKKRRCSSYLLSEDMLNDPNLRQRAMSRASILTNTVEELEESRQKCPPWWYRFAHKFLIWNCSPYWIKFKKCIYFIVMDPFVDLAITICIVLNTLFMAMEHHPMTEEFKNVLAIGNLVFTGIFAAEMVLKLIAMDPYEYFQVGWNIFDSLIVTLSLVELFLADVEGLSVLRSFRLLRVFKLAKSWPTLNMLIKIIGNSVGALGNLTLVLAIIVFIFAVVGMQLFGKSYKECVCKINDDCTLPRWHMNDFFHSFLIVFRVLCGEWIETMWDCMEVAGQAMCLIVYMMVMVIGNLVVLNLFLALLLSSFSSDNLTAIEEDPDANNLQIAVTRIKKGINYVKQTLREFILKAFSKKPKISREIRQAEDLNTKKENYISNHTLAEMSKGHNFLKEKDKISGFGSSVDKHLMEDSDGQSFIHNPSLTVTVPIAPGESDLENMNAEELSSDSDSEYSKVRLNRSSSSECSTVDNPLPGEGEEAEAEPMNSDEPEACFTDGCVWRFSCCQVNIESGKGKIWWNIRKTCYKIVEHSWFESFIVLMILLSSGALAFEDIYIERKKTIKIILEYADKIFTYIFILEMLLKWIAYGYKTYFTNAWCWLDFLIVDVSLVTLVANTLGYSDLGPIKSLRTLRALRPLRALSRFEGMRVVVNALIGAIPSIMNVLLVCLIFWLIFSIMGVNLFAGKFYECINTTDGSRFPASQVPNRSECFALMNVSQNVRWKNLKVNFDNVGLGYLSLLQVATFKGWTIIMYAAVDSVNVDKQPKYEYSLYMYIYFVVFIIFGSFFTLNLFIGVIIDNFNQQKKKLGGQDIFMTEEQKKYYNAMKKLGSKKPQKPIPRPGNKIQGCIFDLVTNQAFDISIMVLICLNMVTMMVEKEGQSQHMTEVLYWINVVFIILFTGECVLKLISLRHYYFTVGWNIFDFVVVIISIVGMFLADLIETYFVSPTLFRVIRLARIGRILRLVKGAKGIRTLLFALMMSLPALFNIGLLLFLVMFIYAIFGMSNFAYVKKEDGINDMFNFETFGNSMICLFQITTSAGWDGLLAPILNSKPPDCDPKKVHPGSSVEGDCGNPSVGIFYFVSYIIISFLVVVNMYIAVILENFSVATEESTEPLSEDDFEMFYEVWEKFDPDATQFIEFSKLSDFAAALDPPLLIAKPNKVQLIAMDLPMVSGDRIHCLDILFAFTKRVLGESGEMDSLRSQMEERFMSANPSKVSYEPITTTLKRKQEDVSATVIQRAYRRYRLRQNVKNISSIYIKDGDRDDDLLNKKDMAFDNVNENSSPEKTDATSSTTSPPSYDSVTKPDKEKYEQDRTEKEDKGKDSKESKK

Row | Compound | IC50 (hNav1.7) | IC50 (hNav1.3) | IC50 (hNav1.5)
1 | CSCC[C@@H]1NC(=O)[C@H](C)NC(=O)CNC(=O)[C@H](CC(C)C)NC(=O)[C@@H](NC(=O)[C@@H](N)CC(=O)O)CSSC[C@@H]2NC(=O)[C@@H]3CSSC[C@@H](C(=O)N[C@@H](CCCCN)C(=O)N[C@@H](Cc4ccc(O)cc4)C(=O)N[C@H](C(=O)N[C@@H](Cc4ccccc4)C(N)=O)C(C)C)NC(=O)[C@H](Cc4c[nH]c5ccccc45)NC(=O)[C@H](CCCCN)NC(=O)[C@H](Cc4c[nH]cn4)NC(=O)[C@H]([C@@H](C)O)NC(=O)[C@H](CCCNC(=N)N)NC(=O)[C@H](CO)NC(=O)[C@H](CSSC[C@H](NC(=O)[C@H](CCCCN)NC(=O)[C@H](CCCNC(=N)N)NC1=O)C(=O)N[C@@H](CC(=O)O)C(=O)N1CCC[C@H]1C(=O)N[C@@H](CC(=O)O)C(=O)N[C@@H](CC(N)=O)C(=O)N[C@@H](CC(=O)O)C(=O)N[C@@H](CCCCN)C(=O)N3)NC(=O)[C@H](C(C)C)NC(=O)[C@H](CC(C)C)NC(=O)[C@H](CC(N)=O)NC(=O)[C@@H]1CCCN1C(=O)[C@H](CCCNC(=N)N)NC2=O [compound 700] (H-DCLGAMRKCDPDNDKCCRPNLVCSRTHKWCKYVF-NH2; disulfide 2-17, 9-23, 16-30) | 0.74 µM | 0.84 µM | 35 µM
2 | CSCC[C@@H]1NC(=O)[C@H](C)NC(=O)CNC(=O)[C@H](CC(C)C)NC(=O)[C@@H](NC(=O)[C@@H](N)CC(=O)O)CSSC[C@@H]2NC(=O)[C@@H]3CSSC[C@@H](C(=O)N[C@@H](CCCCN)C(=O)N[C@@H](Cc4ccc(O)cc4)C(=O)N[C@H](C(=O)N[C@@H](Cc4ccccc4)C(N)=O)C(C)C)NC(=O)[C@H](Cc4c[nH]c5ccccc45)NC(=O)[C@H](CCCCN)NC(=O)[C@H](Cc4c[nH]cn4)NC(=O)[C@H]([C@@H](C)O)NC(=O)[C@H](CCCNC(=N)N)NC(=O)[C@H](CO)NC(=O)[C@H](CSSC[C@H](NC(=O)[C@H](CCCCN)NC(=O)[C@H](CCCNC(=N)N)NC1=O)C(=O)N[C@@H](CC(=O)O)C(=O)N1CCC[C@H]1C(=O)N[C@@H](CCC(=O)O)C(=O)N[C@@H](CC(N)=O)C(=O)N[C@@H](CC(=O)O)C(=O)N[C@@H](CCCCN)C(=O)N3)NC(=O)[C@H](C(C)C)NC(=O)[C@H](CC(C)C)NC(=O)[C@H](CC(N)=O)NC(=O)[C@@H]1CCCN1C(=O)[C@H](CCCNC(=N)N)NC2=O [compound 701] (H-DCLGAMRKCDPENDKCCRPNLVCSRTHKWCKYVF-NH2; disulfide 2-17, 9-23, 16-30) | 0.97 µM | 1.5 µM | 43 µM
3 | CC(C)C[C@@H]1NC(=O)[C@@H](NC(=O)[C@@H](N)CC(=O)O)CSSC[C@@H]2NC(=O)[C@@H]3CSSC[C@@H](C(=O)N[C@@H](CCCCN)C(=O)N[C@@H](Cc4ccc(O)cc4)C(=O)N[C@H](C(=O)N[C@@H](Cc4ccccc4)C(N)=O)C(C)C)NC(=O)[C@H](Cc4c[nH]c5ccccc45)NC(=O)[C@H](CCCCN)NC(=O)[C@H](Cc4c[nH]cn4)NC(=O)[C@H]([C@@H](C)O)NC(=O)[C@H](CCCNC(=N)N)NC(=O)[C@H](CO)NC(=O)[C@H](CSSC[C@H](NC(=O)[C@H](CCCCN)NC(=O)[C@H](CCCNC(=N)N)NC(=O)[C@H](Cc4ccccc4)NC(=O)[C@H](C)NC(=O)CNC1=O)C(=O)N[C@@H](CC(=O)O)C(=O)N1CCC[C@H]1C(=O)N[C@@H](CC(=O)O)C(=O)N[C@@H](CC(N)=O)C(=O)N[C@@H](CC(=O)O)C(=O)N[C@@H](CCCCN)C(=O)N3)NC(=O)[C@H](C(C)C)NC(=O)[C@H](CC(C)C)NC(=O)[C@H](CC(N)=O)NC(=O)[C@@H]1CCCN1C(=O)[C@H](CCCNC(=N)N)NC2=O [compound 702] (H-DCLGAFRKCDPDNDKCCRPNLVCSRTHKWCKYVF-NH2; disulfide 2-17, 9-23, 16-30) | 0.72 µM | 0.37 µM | 43 µM
4 | CC[C@H](C)[C@@H]1NC(=O)[C@@H]2CSSC[C@@H]3NC(=O)[C@H](C(C)C)NC(=O)[C@H](CC(C)C)NC(=O)[C@H](CC(N)=O)NC(=O)[C@@H]4CCCN4C(=O)[C@H](CCCNC(=N)N)NC(=O)[C@H](CSSC[C@H](NC(=O)[C@@H](N)CC(=O)O)C(=O)N[C@@H](CC(C)C)C(=O)NCC(=O)N[C@@H](C)C(=O)N[C@@H](Cc4ccccc4)C(=O)N[C@@H](CCCNC(=N)N)C(=O)N[C@@H](CCCCN)C(=O)N2)NC(=O)[C@H](CSSC[C@@H](C(=O)N[C@@H](CCCCN)C(=O)N[C@@H](Cc2ccc(O)cc2)C(=O)N[C@H](C(=O)N[C@@H](Cc2ccccc2)C(N)=O)C(C)C)NC(=O)[C@H](Cc2c[nH]c4ccccc24)NC(=O)[C@H](CCCCN)NC(=O)[C@H](Cc2c[nH]cn2)NC(=O)[C@H]([C@@H](C)O)NC(=O)[C@H](CCCNC(=N)N)NC(=O)[C@H](CO)NC3=O)NC(=O)[C@H](CCCCN)NC(=O)[C@H](CC(=O)O)NC(=O)[C@H](CC(N)=O)NC(=O)[C@H](CCC(=O)O)NC(=O)[C@@H]2CCCN2C1=O [compound 703] (H-DCLGAFRKCIPENDKCCRPNLVCSRTHKWCKYVF-NH2; disulfide 2-17, 9-23, 16-30) | 0.61 µM | 0.2 µM | 45 µM
5 | CC[C@H](C)[C@@H]1NC(=O)[C@@H]2CSSC[C@@H]3NC(=O)[C@H](C(C)C)NC(=O)[C@H](CC(C)C)NC(=O)[C@H](CC(N)=O)NC(=O)[C@@H]4CCCN4C(=O)[C@H](CCCNC(=N)N)NC(=O)[C@H](CSSC[C@H](NC(=O)[C@@H](N)CC(=O)O)C(=O)N[C@@H](CC(C)C)C(=O)NCC(=O)N[C@@H](C(C)C)C(=O)N[C@@H](CCSC)C(=O)N[C@@H](CCCNC(=N)N)C(=O)N[C@@H](CCCCN)C(=O)N2)NC(=O)[C@H](CSSC[C@@H](C(=O)N[C@@H](CCCCN)C(=O)N[C@@H](Cc2ccc(O)cc2)C(=O)N[C@H](C(=O)N[C@@H](Cc2ccccc2)C(N)=O)C(C)C)NC(=O)[C@H](Cc2c[nH]c4ccccc24)NC(=O)[C@H](CCC(=O)O)NC(=O)[C@H](Cc2c[nH]cn2)NC(=O)[C@H]([C@@H](C)O)NC(=O)[C@H](CCCNC(=N)N)NC(=O)[C@H](CO)NC3=O)NC(=O)[C@H](CCCCN)NC(=O)[C@H](CC(=O)O)NC(=O)[C@H](CC(N)=O)NC(=O)[C@H](CC(=O)O)NC(=O)[C@@H]2CCCN2C1=O [compound 704] (H-DCLGVMRKCIPDNDKCCRPNLVCSRTHEWCKYVF-NH2; disulfide 2-17, 9-23, 16-30) | 0.99 µM | > 5 µM | 49 µM
6 | CCC[C@@H]1NC(=O)CNC(=O)[C@H](CC(C)C)NC(=O)[C@@H](NC(=O)[C@@H](N)CC(=O)O)CSSC[C@@H]2NC(=O)[C@@H]3CSSC[C@@H](C(=O)N[C@@H](CCCCN)C(=O)N[C@@H](Cc4ccc(O)cc4)C(=O)N[C@H](C(=O)N[C@@H](Cc4ccccc4)C(N)=O)C(C)C)NC(=O)[C@H](Cc4c[nH]c5ccccc45)NC(=O)[C@H](CCC(=O)O)NC(=O)[C@H](Cc4c[nH]cn4)NC(=O)[C@H]([C@@H](C)O)NC(=O)[C@H](CCCNC(=N)N)NC(=O)[C@H](CO)NC(=O)[C@H](CSSC[C@H](NC(=O)[C@H](CCCCN)NC(=O)[C@H](CCCNC(=N)N)NC(=O)[C@H](CCSC)NC1=O)C(=O)N[C@@H]([C@@H](C)CC)C(=O)N1CCC[C@H]1C(=O)N[C@@H](CC(=O)O)C(=O)N[C@@H](CC(N)=O)C(=O)N[C@@H](CC(=O)O)C(=O)N[C@@H](CCCCN)C(=O)N3)NC(=O)[C@H](C(C)C)NC(=O)[C@H](CC(C)C)NC(=O)[C@H](CC(N)=O)NC(=O)[C@@H]1CCCN1C(=O)[C@H](CCCNC(=N)N)NC2=O [compound 705] (H-DCLG[Nva]MRKCIPDNDKCCRPNLVCSRTHEWCKYVF-NH2; disulfide 2-17, 9-23, 16-30) | 0.43 µM | 3.4 µM | 33 µM
7 | CC[C@@H]1NC(=O)CNC(=O)[C@H](CC(C)C)NC(=O)[C@@H](NC(=O)[C@@H](N)CC(=O)O)CSSC[C@@H]2NC(=O)[C@@H]3CSSC[C@@H](C(=O)N[C@@H](CCCCN)C(=O)N[C@@H](Cc4ccc(O)cc4)C(=O)N[C@H](C(=O)N[C@@H](Cc4ccccc4)C(N)=O)C(C)C)NC(=O)[C@H](Cc4c[nH]c5ccccc45)NC(=O)[C@H](CCC(=O)O)NC(=O)[C@H](Cc4c[nH]cn4)NC(=O)[C@H]([C@@H](C)O)NC(=O)[C@H](CCCNC(=N)N)NC(=O)[C@H](CO)NC(=O)[C@H](CSSC[C@H](NC(=O)[C@H](CCCCN)NC(=O)[C@H](CCCNC(=N)N)NC(=O)[C@H](CCSC)NC1=O)C(=O)N[C@@H]([C@@H](C)CC)C(=O)N1CCC[C@H]1C(=O)N[C@@H](CC(=O)O)C(=O)N[C@@H](CC(N)=O)C(=O)N[C@@H](CC(=O)O)C(=O)N[C@@H](CCCCN)C(=O)N3)NC(=O)[C@H](C(C)C)NC(=O)[C@H](CC(C)C)NC(=O)[C@H](CC(N)=O)NC(=O)[C@@H]1CCCN1C(=O)[C@H](CCCNC(=N)N)NC2=O [compound 706] (H-DCLG[Abu]MRKCIPDNDKCCRPNLVCSRTHEWCKYVF-NH2; disulfide 2-17, 9-23, 16-30) | 1.4 µM | > 5 µM | > 50 µM
8 | CC[C@@H]1NC(=O)CNC(=O)[C@H](CC(C)C)NC(=O)[C@@H](NC(=O)[C@@H](N)CC(=O)O)CSSC[C@@H]2NC(=O)[C@@H]3CSSC[C@@H](C(=O)N[C@@H](CCCCN)C(=O)N[C@@H](Cc4ccc(O)cc4)C(=O)N[C@H](C(=O)N[C@@H](Cc4ccccc4)C(N)=O)C(C)C)NC(=O)[C@H](Cc4c[nH]c5ccccc45)NC(=O)[C@H](CCC(=O)O)NC(=O)[C@H](Cc4c[nH]cn4)NC(=O)[C@H]([C@@H](C)O)NC(=O)[C@H](CCCNC(=N)N)NC(=O)[C@H](CO)NC(=O)[C@H](CSSC[C@H](NC(=O)[C@H](CCCCN)NC(=O)[C@H](CCCNC(=N)N)NC(=O)[C@H](CC(C)C)NC1=O)C(=O)N[C@@H]([C@@H](C)CC)C(=O)N1CCC[C@H]1C(=O)N[C@@H](CC(=O)O)C(=O)N[C@@H](CC(N)=O)C(=O)N[C@@H](CC(=O)O)C(=O)N[C@@H](CCCCN)C(=O)N3)NC(=O)[C@H](C(C)C)NC(=O)[C@H](CC(C)C)NC(=O)[C@H](CC(N)=O)NC(=O)[C@@H]1CCCN1C(=O)[C@H](CCCNC(=N)N)NC2=O [compound 707] (H-DCLG[Abu]LRKCIPDNDKCCRPNLVCSRTHEWCKYVF-NH2; disulfide 2-17, 9-23, 16-30) | 1.2 µM | > 5 µM | 6 µM
